Bridge positions count the residues as written; N and C are the ends. Square brackets hold non-standard residues; d marks the D form. Peptide text beside a SMILES is read from it. Asu = N[C@@H](CCCCCC(=O)O)C(=O)O; AllylGly = C=CC[C@H](N)C(=O)O; GABA = NCCCC(=O)O
Target: T1, Prostate-specific antigen (Homo sapiens) (UniProt P07288)
T1 sequence (whole entry): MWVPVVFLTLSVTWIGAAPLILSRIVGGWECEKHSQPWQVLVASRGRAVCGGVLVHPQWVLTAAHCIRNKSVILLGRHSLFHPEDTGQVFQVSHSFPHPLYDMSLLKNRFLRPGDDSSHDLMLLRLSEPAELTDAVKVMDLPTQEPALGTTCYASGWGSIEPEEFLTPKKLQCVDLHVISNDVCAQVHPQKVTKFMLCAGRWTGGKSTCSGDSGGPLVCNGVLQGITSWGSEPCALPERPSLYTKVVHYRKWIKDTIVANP
Assay: Stimulation of KLK3 (unknown origin) relative to control

Activity [%]	SMILES
250	CC(C)C[C@@H]1NC(=O)[C@H](Cc2ccc(O)cc2)NC(=O)[C@H](CC(=O)O)NC(=O)[C@H](Cc2ccc(O)cc2)NC(=O)[C@H](CC(N)=O)NC(=O)[C@H](Cc2cnc[nH]2)NC(=O)[C@H](C)NC(=O)[C@H](Cc2ccccc2)NC(=O)[C@H](C(C)C)NC(=O)CCCNC(=O)[C@H](CC(=O)O)NC(=O)[C@H](C(C)C)NC1=O (cyclo(AHNYDYLVD[GABA]VF))

Target: T1, Prostate-specific antigen (Homo sapiens)
Assay: Stimulation of KLK3 (unknown origin) using S-2586 as substrate at 14 uM after 30 mins by spectrophotometric assay relative to control

Activity [%]	SMILES
250	CC(C)C[C@@H]1NC(=O)[C@H](Cc2ccc(O)cc2)NC(=O)[C@H](CC(=O)O)NC(=O)[C@H](Cc2ccc(O)cc2)NC(=O)[C@H](CC(N)=O)NC(=O)[C@H](Cc2cnc[nH]2)NC(=O)[C@H](C)NC(=O)[C@H](Cc2ccccc2)NC(=O)[C@H](C(C)C)NC(=O)[C@@H](N)CCCC[C@@H](C(=O)O)NC(=O)[C@H](C(C)C)NC1=O
160	CC(C)C[C@@H]1NC(=O)[C@H](Cc2ccc(O)cc2)NC(=O)[C@H](CC(=O)O)NC(=O)[C@H](Cc2ccc(O)cc2)NC(=O)[C@H](CC(N)=O)NC(=O)[C@H](Cc2cnc[nH]2)NC(=O)[C@H](C)NC(=O)[C@H](Cc2ccccc2)NC(=O)[C@H](C(C)C)NC(=O)[C@@H](N)C/C=C/C[C@@H](C(=O)O)NC(=O)[C@H](C(C)C)NC1=O (H-[AllylGly]VFAHNYDYLV[AllylGly]-OH; staple (E) 1-12)
360	CC(C)C[C@@H]1NC(=O)[C@H](Cc2ccc(O)cc2)NC(=O)[C@H](CC(=O)O)NC(=O)[C@H](Cc2ccc(O)cc2)NC(=O)[C@H](CC(N)=O)NC(=O)[C@H](Cc2cnc[nH]2)NC(=O)[C@H](C)NC(=O)[C@H](Cc2ccccc2)NC(=O)[C@H](C(C)C)NC(=O)[C@@H](N)CSSC[C@@H](C(N)=O)NC(=O)[C@H](C(C)C)NC1=O (H-CVFAHNYDYLVC-NH2; disulfide 1-12)

Second part, the compound before the results:

SMILES	Activity [%]
CC(C)C[C@@H]1NC(=O)[C@H](Cc2ccc(O)cc2)NC(=O)[C@H](CC(=O)O)NC(=O)[C@H](Cc2ccc(O)cc2)NC(=O)[C@H](CC(N)=O)NC(=O)[C@H](Cc2cnc[nH]2)NC(=O)[C@H](C)NC(=O)[C@H](Cc2ccccc2)NC(=O)[C@H](C(C)C)NC(=O)CC/C=C/C[C@@H](C(=O)O)NC(=O)[C@H](C(C)C)NC1=O	160
CC(C)C[C@@H]1NC(=O)[C@H](Cc2ccc(O)cc2)NC(=O)[C@H](CC(=O)O)NC(=O)[C@H](Cc2ccc(O)cc2)NC(=O)[C@H](CC(N)=O)NC(=O)[C@H](Cc2cnc[nH]2)NC(=O)[C@H](C)NC(=O)[C@H](Cc2ccccc2)NC(=O)[C@H](C(C)C)NC(=O)CCCCC[C@@H](C(=O)O)NC(=O)[C@H](C(C)C)NC1=O (VFAHNYDYLV[Asu]-OH; lactam N-11)	170
